Source: patent publication US20190218504A1, “METHODS OF CULTURING AURANTIOCHYTRIUM USING ACETATE AS AN ORGANIC CARBON SOURCE” (HELIAE DEVELOPMENT LLC, priority 2016, published 2019)
Where two headings read alike, the source gives them in different places.

Experiments:
[1] = system: Aurantiochytrium sp. HS399; conditions: cultures with a pH of 5 and above
Description: Aurantiochytrium was grown in an acetic acid/pH-auxostat mode in 700 ml bubble column at 27° C. in sterile conditions. […] Trace and vitamins stocks were prepared according to Ashford, et al. 2000.

[2] = system: Aurantiochytrium sp. HS399; conditions: FIG. 1; pH set point 5.5 and 7
Description: An experiment was performed to determine the ability of Aurantiochytrium to grow on combination of acetate and another organic carbon source in axenic and contaminated culture conditions. […] The initial culture medium was supplemented with 30 g/L glycerol and 0.5 g/L acetate. […] Cell dry weights were measured daily.

[3] = system: Aurantiochytrium sp. HS399; conditions: Table 19
Description: (§1) An experiment was performed to determine the effectiveness of growing Aurantiochytrium with combination of acetate and a non-acetate organic carbon sources, in this case glycerol. Aurantiochytrium sp. HS399 was grown in a 100 L open pond. The base medium contained: sodium acetate (1 g/L), glycerol (30 g/L) monosodium glutamate monohydrate (2.5 g/L) NaCl (12.5 g/L), MgSO4.7H2O (2.5 g/L), KCl (0.5 g/L), CaCl2 (0.1 g/L), KH2PO4 (0.5 g/L), vitamins (1 ml/L), and trace metal (5 ml/L). Trace and vitamins stocks were prepared according to Ashford, et al. 2000. Lipids 35, 1377-1386. The ponds were inoculated at 1 v/v using exponentially growing cultures. Aeration was maintained at 0.5 vvm using a porous hose. In one treatment the pH was controlled at a set point of pH 7 with hydrochloric acid, and no acetic acid was supplied (i.e., glycerol only). In another treatment acetic acid was supplied by a pH auxostat system at a set point of 5.5 in addition to the glycerol. The impact on microalgae growth and contamination was analyzed by measuring dry weights (filtration), residual acetate concentration in the culture medium (HPLC), and total aerobic bacteria counts (petrifilms) daily.

aerobic bacteria = conditions: throughout the batch, Table 20
Description: as §1

[4] = system: Aurantiochytrium sp. HS399; conditions: for growth with nitrogen source under an acetic acid pH auxostat system: pH 5.5 or 6.0
[5] = system: Aurantiochytrium sp. HS399
Description: An experiment was performed to determine if Aurantiochytrium sp. HS399 can grow using acetate as an organic carbon source and ammonia as a nitrogen source. Aurantiochytrium was grown in an acetic acid/pH-auxostat mode in 700 ml bubble column at 27° C. in sterile conditions. The base medium contained: NaCl (12.5 g/L), MgSO4.7H2O (2.5 g/L), KCl (0.5 g/L). CaCl2) (0.1 g/L), KH2PO4 (0.125 g/L) vitamins (0.25 ml/L) and trace metal (1.25 ml/L). Trace and vitamins stocks were prepared according to Ashford, et al. 2000. Lipids 35, 1377-1386. A blend of ammonium (hydroxide and acetic acid 1:5 w/w) with slightly higher molar ratio of acetic acid (1:1.1) was prepared with the aim maintain residual acetate present until the end of the pH auxostat. The pH auxostat was set to pH 6.6. The ammonium acetate blend was added to the treatments in order to match the following concentrations: 1×: 1.07 g/L NH4, 5.68 g/L acetic acid, 3×: 3.21 g/L NH4, 17.04 g/L acetic acid, 5×: 5.35 g/L NH4, 28.40 g/L acetic acid, 7×: 7.49 g/L NH4, 39.76 g/L acetic acid.

**Q.** What does the source list for `CC(=O)O` [Acetic Acid, acetic acid]?
**A.** growth using acetate as an organic carbon source [1]: able to grow; growth in axenic and contaminated cultures versus cultures not receiving acetic acid [2]: comparable growth; growth compared to the other culture (glycerol only, HCl) [3]: comparable growth; decrease of aerobic bacteria counts as compared to the other treatment (aerobic bacteria): ≥ 3 log

**Q.** For `N[C@@H](CCC(=O)O)C(=O)[O-].[Na+]` [MSG, monosodium glutamate], which “Cell Dry Weight” value ([4]; pH 5.5, 2.5 g/L, time 1 d) is on record?
**A.** 2.6 ± 0.0 g/L

**Q.** What about the “Cell Dry Weight” value ([4]; pH 5.5, 2.5 g/L, time 2 d) of the same molecule?
**A.** 5.2 ± 0.0 g/L

**Q.** What about the “Cell Dry Weight” value ([4]; pH 5.5, 2.5 g/L, time 3 d) of the same molecule?
**A.** 7.5 ± 0.2 g/L

**Q.** And the “Cell Dry Weight” value ([4]; pH 5.5, 2.5 g/L, time 4 d)?
**A.** 8.8 ± 0.4 g/L

**Q.** What about the “Cell Dry Weight” value ([4]; pH 5.5, 2.5 g/L, time 5 d) of the same molecule?
**A.** 10.4 ± 0.4 g/L

**Q.** And the “Cell Dry Weight” value ([4]; pH 5.5, 2.5 g/L, time 6 d)?
**A.** 11.4 ± 0.3 g/L

**Q.** What about the “growth with nitrogen source under an acetic acid pH auxostat system” value [4] of the same molecule?
**A.** could grow

**Q.** And the “Cell Dry Weight” value ([4]; pH 6.0, 10 g/L, time 1 d)?
**A.** 3.6 ± 0.3 g/L

**Q.** What about the “Cell Dry Weight” value ([4]; pH 6.0, 10 g/L, time 2 d) of the same molecule?
**A.** 6.1 ± 0.1 g/L

**Q.** And the “Cell Dry Weight” value ([4]; pH 6.0, 10 g/L, time 4 d)?
**A.** 7.9 ± 2.0 g/L

**Q.** What about the “Cell Dry Weight” value ([4]; pH 6.0, 10 g/L, time 6 d) of the same molecule?
**A.** 11.9 ± 2.6 g/L

**Q.** What does the source list for `CC(=O)O.N` [NH4AoC, ammonium acetate]?
**A.** Cell Dry Weight ([5]; 1X (1.07 g/L NH4, 5.68 g/L acetic acid), time 0 d): 0.6 ± 0.0 g/L; Cell Dry Weight ([5]; 1X, time 1 d): 2.2 ± 0.0 g/L; Cell Dry Weight ([5]; 1X, time 2 d): 4.8 ± 0.0 g/L; Cell Dry Weight ([5]; 1X, time 3 d): 7.0 ± 0.1 g/L; Cell Dry Weight ([5]; 1X, time 4 d): 7.9 ± 0.1 g/L; Cell Dry Weight ([5]; 1X, time 5 d): 8.7 ± 0.2 g/L; Cell Dry Weight ([5]; 1X, time 6 d): 9.4 ± 0.1 g/L; growth on ammonium acetate blends ([5]; 1× and 3× blends, pH 6.6): able to grow; Cell Dry Weight ([5]; 3X (3.21 g/L NH4, 17.04 g/L acetic acid), time 0 d): 0.6 ± 0.0 g/L; Cell Dry Weight ([5]; 3X, time 1 d): 1.7 ± 0.1 g/L; Cell Dry Weight ([5]; 3X, time 2 d): 3.6 ± 0.3 g/L; Cell Dry Weight ([5]; 3X, time 3 d): 5.2 ± 0.1 g/L; Cell Dry Weight ([5]; 3X, time 4 d): 6.5 ± 0.3 g/L; Cell Dry Weight ([5]; 3X, time 5 d): 6.8 ± 0.3 g/L; Cell Dry Weight ([5]; 3X, time 6 d): 7.5 ± 0.1 g/L; Cell Dry Weight ([5]; 5X (5.35 g/L NH4, 28.40 g/L acetic acid), time 0 d): 0.6 ± 0.0 g/L; Cell Dry Weight ([5]; 5X, time 1 d): 0.8 ± 0.2 g/L; Cell Dry Weight ([5]; 5X, time 2 d): 0.7 ± 0.1 g/L; Cell Dry Weight ([5]; 5X, time 3 d): 0.7 ± 0.0 g/L; Cell Dry Weight ([5]; 5X, time 4 d): 0.8 ± 0.1 g/L; Cell Dry Weight ([5]; 5X, time 5 d): 0.3 ± 0.0 g/L; Cell Dry Weight ([5]; 5X, time 6 d): 0.4 ± 0.0 g/L; Cell Dry Weight ([5]; 7X (7.49 g/L NH4, 39.76 g/L acetic acid), time 0 d): 0.6 ± 0.0 g/L; Cell Dry Weight ([5]; 7X, time 1 d): 1.0 ± 0.2 g/L; Cell Dry Weight ([5]; 7X, time 2 d): 0.6 ± 0.1 g/L; Cell Dry Weight ([5]; 7X, time 3 d): 0.7 ± 0.0 g/L; Cell Dry Weight ([5]; 7X, time 4 d): 0.8 ± 0.1 g/L; Cell Dry Weight ([5]; 7X, time 5 d): 0.3 ± 0.0 g/L; Cell Dry Weight ([5]; 7X, time 6 d): 0.6 ± 0.1 g/L; Cell Dry Weight ([4]; pH 5.5, 1.1 g/L, time 0 d): 0.2 ± 0.0 g/L; Cell Dry Weight ([4]; pH 5.5, 1.1 g/L, time 1 d): 2.5 ± 0.1 g/L; Cell Dry Weight ([4]; pH 5.5, 1.1 g/L, time 2 d): 4.9 ± 0.1 g/L; Cell Dry Weight ([4]; pH 5.5, 1.1 g/L, time 3 d): 7.5 ± 0.3 g/L; Cell Dry Weight ([4]; pH 5.5, 1.1 g/L, time 4 d): 8.9 ± 0.2 g/L; Cell Dry Weight ([4]; pH 5.5, 1.1 g/L, time 5 d): 10.7 ± 0.3 g/L; Cell Dry Weight ([4]; pH 5.5, 1.1 g/L, time 6 d): 11.8 ± 0.1 g/L; growth with nitrogen source under an acetic acid pH auxostat system [4]: could grow; Cell Dry Weight ([4]; pH 6.0, 4.5 g/L, time 0 d): 0.2 ± 0.0 g/L; Cell Dry Weight ([4]; pH 6.0, 4.5 g/L, time 1 d): 2.6 ± 0.1 g/L; Cell Dry Weight ([4]; pH 6.0, 4.5 g/L, time 2 d): 5.4 ± 0.4 g/L; Cell Dry Weight ([4]; pH 6.0, 4.5 g/L, time 3 d): 7.8 ± 0.1 g/L; Cell Dry Weight ([4]; pH 6.0, 4.5 g/L, time 4 d): 9.8 ± 0.5 g/L; Cell Dry Weight ([4]; pH 6.0, 4.5 g/L, time 5 d): 11.9 ± 0.2 g/L; Cell Dry Weight ([4]; pH 6.0, 4.5 g/L, time 6 d): 13.8 ± 0.2 g/L
